# Measurements: US12421242B2, “Substituted tetrahydropyrrolo-pyridinone compounds and their use in treating medical conditions” (Karuna Therapeutics, Inc., priority 2022, dated 2025)
# Tests used:
# [1] = target: T1, hM4 receptors (Homo sapiens, UniProt P08173); test: Human M4 PAM pERK assay; type: cell-based; conditions: PAM mode
# T1 construct: expressed in transfected cells; host or cells: CHO cells
# T1 sequence (P08173 1-479): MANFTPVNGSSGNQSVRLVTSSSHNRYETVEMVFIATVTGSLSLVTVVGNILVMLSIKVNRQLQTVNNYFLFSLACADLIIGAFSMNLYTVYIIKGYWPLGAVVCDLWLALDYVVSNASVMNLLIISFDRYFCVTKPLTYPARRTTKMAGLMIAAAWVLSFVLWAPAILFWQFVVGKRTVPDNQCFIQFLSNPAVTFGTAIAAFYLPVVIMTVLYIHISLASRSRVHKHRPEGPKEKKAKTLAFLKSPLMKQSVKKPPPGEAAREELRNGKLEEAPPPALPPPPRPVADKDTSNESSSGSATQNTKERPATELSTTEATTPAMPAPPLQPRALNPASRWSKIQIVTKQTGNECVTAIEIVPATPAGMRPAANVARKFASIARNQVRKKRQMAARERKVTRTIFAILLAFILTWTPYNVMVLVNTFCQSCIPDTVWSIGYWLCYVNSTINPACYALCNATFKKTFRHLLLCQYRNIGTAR
# Experimental: (§1) Chinese hamster ovary (CHO) cells expressing either hM4 or rM4 receptors were frozen in assay ready vials (5×10^6 cells/vial) after bulking-up in culture. The day before an assay, vial(s) were thawed and cells seeded in 384 well white proxiplates at 1000/well for hM4 cells and at 2000/well for rM4 cells, in 10 μL of growth media (Hams/F12 with glutamax and 10% FCS) and incubated overnight at 37° C./5% CO2.
# (§2) On the following morning, the growth media was removed by ‘flicking out’ over a bin, patting the inverted plate onto tissue, and then replacing with 10 μL of wash media (Hams/F12 with glutamax and 8 mM HEPES, NB: serum free). Then, the wash media was removed in the same way and replaced with 8 μL/well of the serum free media. Plates were then re-incubated for a further 4 hours at 37° C./5% CO2.
# (§3) Compounds for testing were solubilized to 10 mM in DMSO and compound addition plates, consisting of ten-point concentration response curves (CRC) in duplicate points (10 μM top concentration, […]), were prepared by acoustic dispensing and the compound management group.
# (§4) After the 4-hour incubation in serum free media, a 4 μL aliquot of the 3× compound solution containing an EC20 of acetylcholine (10 nM final concentration) was added to the cell plate using a 384 well plate to plate transfer. Then, the plate lid was replaced, and the cells incubated for 5 mins at 37° C./5% CO2. Following this final incubation, all cellular processes were stopped by the addition of 4 μL/well of lysis and blocking buffer and plates were incubated for 30 minutes at RT on an orbital shaker (gentle setting). Then, a final addition of 4 μL/well of antibody detection mix, containing both the Europium-Cryptate (donor) and d2 (acceptor) tagged detection components, was added followed by a further 2-hour incubation at RT, and then the plate was read using a TR-FRET (time resolved fluorescence resonance energy transfer) based protocol.
# [2] = target: T2, rM4 receptors (Rattus norvegicus, UniProt P08485); test: Rat M4 PAM pERK assay; type: cell-based; conditions: PAM mode
# T2 construct: expressed in transfected cells; host or cells: CHO cells
# T2 sequence (P08485 1-478): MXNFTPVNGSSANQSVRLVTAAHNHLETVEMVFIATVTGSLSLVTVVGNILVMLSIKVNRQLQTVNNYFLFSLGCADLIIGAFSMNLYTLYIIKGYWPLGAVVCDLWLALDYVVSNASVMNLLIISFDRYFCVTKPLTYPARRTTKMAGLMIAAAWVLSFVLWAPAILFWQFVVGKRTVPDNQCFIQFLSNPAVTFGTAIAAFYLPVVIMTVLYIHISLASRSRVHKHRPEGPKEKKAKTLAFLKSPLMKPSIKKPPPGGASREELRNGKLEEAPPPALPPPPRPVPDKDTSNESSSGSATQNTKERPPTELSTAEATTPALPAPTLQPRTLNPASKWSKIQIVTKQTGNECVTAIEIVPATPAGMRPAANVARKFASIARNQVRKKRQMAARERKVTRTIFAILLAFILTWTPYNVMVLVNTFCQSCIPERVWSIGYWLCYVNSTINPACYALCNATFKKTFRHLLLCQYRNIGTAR
# Experimental: as §1, §2, §3, §4
# [3] = target: T3, human M4 receptor (Homo sapiens, UniProt P08173); test: M4 GTPγS PAM assay; type: biochemical; conditions: CHO-K1 membranes expressing human M4, with EC20 acetylcholine (40 nM)
# T3 construct: expressed in transfected cells
# T3 sequence (P08173 1-479): T1 sequence (P08173 1-479)
# Experimental: The M4 GTPγS PAM method was used. Membranes were prepared for GTPgS binding assays from CHO-K1 cells stably expressing human M4 receptor. Briefly, cells were grown in 5-layer cell culture flasks. Cells were washed with 50 mL of PBS and then dissociated with 0.05% trypsin. Dissociated cells were then collected by centrifugation at 650×g for 8 minutes at 4° C. Pellets were washed again in PBS by centrifugation and resuspended in 30 mL of 20 mM HEPES, 10 mM EDTA, pH 7.4. After sitting on ice for 30 min, membranes were collected by centrifugation at 50000×g for 15′ at 4° C., resuspended in 30 mL of 20 mM HEPES, 0.1 mM EDTA, pH 7.4 and collected again by centrifugation. Pellets were then washed twice by centrifugation in 30 mL of 20 mM HEPES, pH 7.4, and stored at −80° C. until the day of the assay. On the day of the assay, pellets were thawed on ice and resuspended in 1 mL of 20 mM HEPES, pH 7.4, 10 mM MgCl2, 100 mM NaCl using dounce homogenization. Membrane protein concentration is determined by BCA protein assay (Promega, Madison, WI) according to Promega guidelines.
# On the day of the assay, serial dilutions of test PAM compounds were brought up in assay buffer (20 mM HEPES, 10 mM MgCl2, 100 mM NaCl) at 4× final assay concentration. […] of membrane homogenates (containing […] of membrane protein) were prepared in assay buffer supplemented with GDP at 4× final assay concentration (final assay concentration of GDP is 5 uM for M2 and 0.1 uM for M4) and dispensed into 96 well polypropylene, U-bottom Greiner plates. […] of vehicle or test PAM compound at 4× of final assay concentration diluted in the assay buffer were added to membrane and plates are incubated for 10-15 minutes at room temperature with gentle shaking. Then, […] of EC20 acetylcholine in assay buffer at 4× final assay concentration was added to assay plates (EC20 final assay concentrations was 40 nM for human M4).
# Plates were then incubated, with shaking, for an additional 10-15 minutes. 25 mL of 0.4 nM ^35S-GTP (Perkin Elmer, Waltham, MA) in assay buffer was added to assay mixtures. The binding reaction is left on the shaker for 1 hour at room temperature. Membranes in assay reactions were then transferred to GF/C filter plates (Unifilter, Perkin Elmer) and washed three times using a FilterMate Harvester (Perkin Elmer) with cold assay buffer containing no GDP. Filter plates were then dried at 40° C. overnight followed by the addition of […] of Beta Plate Scintillation liquid. Plates are top and bottom sealed before being read on TopCount scintillation counter (Perkin Elmer, Waltham, MA).
SMILES,EC50 [1],EC50 [2],EC50 [3]
Cc1nc(C(=O)N2Cc3c(C)c(Cl)c(=O)n(C)c3C2)co1 [Compound I-12],100 to 500 nM,> 2000 nM,> 2000 nM
Cc1cc(=O)n(C)c2c1[C@@H](C)N(C(=O)c1ccc3nc(C4CC4)sc3c1)C2 [Compound I-103],100 to 500 nM,500 to 2000 nM,> 2000 nM
Cc1c2c(n(C)c(=O)c1Cl)CN(C(=O)c1cnc(CC3CC3)s1)C2 [Compound I-28],< 100 nM,500 to 2000 nM,100 to 500 nM
"Cc1c2c(n(C)c(=O)c1F)CN(C(=O)c1cnn(C(F)(F)F)c1)C2 [Compound I-113, 3-Fluoro-1,4-dimethyl-6-(1-(trifluoromethyl)-1H-pyrazole-4-carbonyl)-1,5,6,7-tetrahydro-2H-pyrrolo[3,4-b]pyridin-2-one]",< 100 nM,> 2000 nM,500 to 2000 nM
COC(C)(C)Cn1cc(C(=O)N2Cc3c(C)c(Cl)c(=O)n(C)c3C2)cn1 [Compound I-62],> 2000 nM,> 2000 nM,500 to 2000 nM
Cc1c2c(n(C)c(=O)c1Cl)CN(C(=O)c1cnc(CC3CC3(F)F)s1)C2 (stereo not drawn) [Compound I-66],< 100 nM,> 2000 nM,500 to 2000 nM
"COc1c2c(n(C)c(=O)c1C)CN(C(=O)c1cnn(C(F)(F)F)c1)C2C (single isomer, unassigned) [Compound I-83]",< 100 nM,500 to 2000 nM,100 to 500 nM
Cc1c2c(n(C)c(=O)c1Cl)CN(C(=O)c1cn3c(n1)CCCC3)C2 [Compound I-24],500 to 2000 nM,> 2000 nM,> 2000 nM
Cc1c2c(n(C)c(=O)c1Cl)CN(C(=O)c1cc(C3CC3)on1)C2 [Compound I-6],100 to 500 nM,> 2000 nM,> 2000 nM
Cc1c2c(n(C)c(=O)c1Cl)CN(C(=O)c1cccc(C(F)(F)F)c1)C2 [Compound I-40],500 to 2000 nM,> 2000 nM,> 2000 nM
"COc1c2c(n(C)c(=O)c1Cl)CN(C(=O)c1cnn(C(F)(F)F)c1)C2C (single isomer, unassigned) [Compound I-75]",> 2000 nM,> 2000 nM,> 2000 nM
Cc1c2c(n(C)c(=O)c1Cl)CN(C(=O)c1cnc(C)n1C)C2 [Compound I-18],500 to 2000 nM,> 2000 nM,> 2000 nM
"Cc1cc(=O)n(C)c2c1C(C)N(C(=O)c1cnc(C(F)(F)F)s1)C2 (single isomer, unassigned) [Compound I-94]",> 2000 nM,> 2000 nM,> 2000 nM
Cc1ncc(C(=O)N2Cc3c(C)c(Cl)c(=O)n(C)c3C2)s1 [Compound I-9],< 100 nM,500 to 2000 nM,500 to 2000 nM
"Cc1c2c(n(C)c(=O)c1Cl)C(C)N(C(=O)c1cnn(C(F)(F)F)c1)C2 (single isomer, unassigned) [Compound I-108, 3-Chloro-1,4,7-trimethyl-6-(1-(trifluoromethyl)-1H-pyrazole-4-carbonyl)-1,5,6,7-tetrahydro-2H-pyrrolo[3,4-b]pyridin-2-one]",500 to 2000 nM,> 2000 nM,> 2000 nM
"Cc1cc(=O)n(C)c2c1C(C)N(C(=O)c1cnc(C3CC3)s1)C2 (single isomer, unassigned) [Compound I-97]",100 to 500 nM,> 2000 nM,> 2000 nM
"Cc1cc(=O)n(C)c2c1C(C)N(C(=O)c1cnc(C3CC3)s1)C2 (single isomer, unassigned) [Compound I-96]",> 2000 nM,> 2000 nM,> 2000 nM
Cc1c2c(n(C)c(=O)c1Cl)CN(C(=O)c1ccn(C)n1)C2 [Compound I-3],500 to 2000 nM,> 2000 nM,> 2000 nM
"Cc1cc(=O)n(C)c2c1C(C)N(C(=O)c1ccc3nc(C(F)(F)F)sc3c1)C2 (single isomer, unassigned) [Compound I-100]",> 2000 nM,> 2000 nM,> 2000 nM
"Cc1c2c(n(C)c(=O)c1Cl)CN(C(=O)c1ccc3nc(C4CC4)sc3c1)C2 [Compound I-52, 3-Chloro-6-(2-cyclopropylbenzo[d]thiazole-6-carbonyl)-1,4-dimethyl-1,5,6,7-tetrahydro-2H-pyrrolo[3,4-b]pyridin-2-one]",100 to 500 nM,100 to 500 nM,500 to 2000 nM
Cc1c2c(n(C)c(=O)c1Cl)C(C)N(C(=O)c1cnn(C(F)(F)F)c1)C2 (stereo not drawn) [Compound I-109],500 to 2000 nM,> 2000 nM,> 2000 nM
"COc1c2c(n(C)c(=O)c1Cl)CN(C(=O)c1cnn(C(F)(F)F)c1)C2C (stereo not drawn) [Compound I-73, 3-Chloro-4-methoxy-1,5-dimethyl-6-(1-(trifluoromethyl)-1H-pyrazole-4-carbonyl)-1,5,6,7-tetrahydro-2H-pyrrolo[3,4-b]pyridin-2-one]",100 to 500 nM,500 to 2000 nM,100 to 500 nM
"COc1c2c(n(C)c(=O)c1Cl)CN(C(=O)c1cnn(C(F)(F)F)c1)C2C (single isomer, unassigned) [Compound I-74]",< 100 nM,500 to 2000 nM,500 to 2000 nM
Cc1c2c(n(C)c(=O)c1Cl)CN(C(=O)c1cnc(C(F)(F)F)s1)C2 [Compound I-29],< 100 nM,500 to 2000 nM,500 to 2000 nM
